From PubChem BioAssay AID248 (DTP/NCI, 2004)
Toxic doses and inconclusive results are not listed. No stated cut-off is given here; in the data, active means T/C of 150% or more; inactive means T/C below 125%.

Tested on: L1210 leukemia ip in BDF1 mice, survival T/C
Test: NCI In Vivo Anticancer Drug Screen. Data for tumor model L1210 Leukemia (intraperitoneal) in B6D2F1 (BDF1) mice
Details: endpoint: mean survival time, higher = longer survival
Procedure, shortened: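 Survival endpoint. Drug-treated group vs vehicle group, expressed as T divided by C. Tumor passaged by transplantation.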

[1] = dose: 100.0 mg/kg/injection, schedule: Q01DX001 (ip), vehicle: carboxymethylcellulose (CMC)
[2] = dose: 100.0 mg/kg/injection, schedule: Q01DX001 (ip), vehicle: saline
[3] = dose: 200.0 mg/kg/injection, schedule: Q01DX001 (ip), vehicle: saline
[4] = dose: 400.0 mg/kg/injection, schedule: Q01DX001 (ip), vehicle: saline
[5] = dose: 100.0 mg/kg/injection, schedule: Q04DX003 (ip), vehicle: saline
[6] = dose: 50.0 mg/kg/injection, schedule: Q01DX001 (ip), vehicle: saline
[7] = dose: 100.0 mg/kg/injection, schedule: Q01DX009 (ip), vehicle: Klucel (hydroxypropylcellulose) (HPC)
[8] = dose: 100.0 mg/kg/injection, schedule: Q04DX003 (ip), vehicle: Klucel (hydroxypropylcellulose) (HPC)
[9] = dose: 200.0 mg/kg/injection, schedule: Q01DX009 (ip), vehicle: Klucel (hydroxypropylcellulose) (HPC)
[10] = dose: 200.0 mg/kg/injection, schedule: Q04DX003 (ip), vehicle: Klucel (hydroxypropylcellulose) (HPC)
[11] = dose: 100.0 mg/kg/injection, schedule: Q04DX003 (ip), vehicle: saline with Tween-80
[12] = dose: 200.0 mg/kg/injection, schedule: Q04DX003 (ip), vehicle: saline with Tween-80
[13] = dose: 400.0 mg/kg/injection, schedule: Q04DX003 (ip), vehicle: saline with Tween-80
[14] = dose: 50.0 mg/kg/injection, schedule: Q01DX009 (ip), vehicle: saline with Tween-80
[15] = dose: 100.0 mg/kg/injection, schedule: Q01DX001 (ip), vehicle: saline with Tween-80
[16] = dose: 100.0 mg/kg/injection, schedule: Q01DX001 (ip), vehicle: other
[17] = dose: 400.0 mg/kg/injection, schedule: Q04DX003 (ip), vehicle: Klucel (hydroxypropylcellulose) (HPC)

Measured: T/C

CCCCCCCCCCCCn1cnc2c(N)ncnc21
inactive: dose: 12.5 mg/kg/injection, schedule: Q01DX005 (ip), vehicle: other 101 % of control | dose: 25.0 mg/kg/injection, schedule: Q01DX005 (ip), vehicle: other 96 % of control | dose: 50.0 mg/kg/injection, schedule: Q01DX005 (ip), vehicle: other 95 % of control | dose: 100.0 mg/kg/injection, schedule: Q01DX005 (ip), vehicle: other 96 % of control | dose: 200.0 mg/kg/injection, schedule: Q01DX005 (ip), vehicle: other 93 % of control

C=CCOC(=O)Nc1ccc(S(=O)(=O)N(C)C)cc1
inactive: [1] 97 % of control | dose: 200.0 mg/kg/injection, schedule: Q01DX001 (ip), vehicle: carboxymethylcellulose (CMC) 93 % of control | dose: 400.0 mg/kg/injection, schedule: Q01DX001 (ip), vehicle: carboxymethylcellulose (CMC) 97 % of control

OCCOCCOCCOCCO
inactive: [2] 109 % of control | [3] 105 % of control | [4] 100 % of control

Cc1ccc([N+](=O)[O-])cc1S(=O)(=O)O
inactive: dose: 100.0 mg/kg/injection, schedule: Q01DX009 (ip), vehicle: saline 95 % of control | [5] 102 % of control | dose: 200.0 mg/kg/injection, schedule: Q01DX009 (ip), vehicle: saline 102 % of control | dose: 200.0 mg/kg/injection, schedule: Q04DX003 (ip), vehicle: saline 102 % of control | dose: 400.0 mg/kg/injection, schedule: Q01DX009 (ip), vehicle: saline 98 % of control | dose: 400.0 mg/kg/injection, schedule: Q04DX003 (ip), vehicle: saline 96 % of control

O=C(O)CCN1CCN(c2cccc(Cl)c2)CC1
inactive: [2] 96 % of control | [3] 95 % of control

Cc1ccc(S(=O)(=O)N(CC(=O)c2ccccc2)c2ccc(Br)cc2)cc1
inactive: [2] 89 % of control | [3] 86 % of control | [4] 86 % of control

COC1CCC(/C(C#N)=C/C2CCC(N(C)C)CC2)CC1 (stereo not given)
inactive: dose: 100.0 mg/kg/injection, schedule: Q04DX002 (ip), vehicle: saline with Tween-80 95 % of control | dose: 200.0 mg/kg/injection, schedule: Q04DX002 (ip), vehicle: saline with Tween-80 91 % of control | dose: 400.0 mg/kg/injection, schedule: Q04DX002 (ip), vehicle: saline with Tween-80 98 % of control

NNS(=O)(=O)c1ccccc1
inactive: dose: 25.0 mg/kg/injection, schedule: Q04DX003 (ip), vehicle: saline 101 % of control | dose: 50.0 mg/kg/injection, schedule: Q01DX001 (ip), vehicle: carboxymethylcellulose (CMC) 101 % of control | dose: 50.0 mg/kg/injection, schedule: Q04DX003 (ip), vehicle: saline 101 % of control | [1] 92 % of control | [5] 103 % of control

O=C(O)C(=O)Cc1c(Cl)cccc1[N+](=O)[O-]
inactive: [6] 104 % of control | [2] 101 % of control | [3] 106 % of control | [4] 104 % of control

N#CCN1Cc2ccccc2CCc2ccccc2C1
inactive: dose: 50.0 mg/kg/injection, schedule: Q01DX009 (ip), vehicle: Klucel (hydroxypropylcellulose) (HPC) 103 % of control | [7] 108 % of control | [8] 100 % of control | [9] 107 % of control | [10] 96 % of control

CC(Oc1ccc(Br)cc1Br)C(=O)O (stereo not given)
inactive: [11] 93 % of control | [12] 93 % of control | [13] 95 % of control

OC[CH2][Sb]([Cl])([Cl])([c]1ccccc1)[c]1ccccc1
inactive: dose: 5.0 mg/kg/injection, schedule: Q04DX002 (ip), vehicle: saline with Tween-80 97 % of control | dose: 10.0 mg/kg/injection, schedule: Q04DX002 (ip), vehicle: saline with Tween-80 101 % of control | dose: 20.0 mg/kg/injection, schedule: Q04DX002 (ip), vehicle: saline with Tween-80 101 % of control

Oc1ccc(Cl)cc1Cc1cc(Cl)cc(Cc2cc(Cl)ccc2O)c1O
inactive: dose: 12.5 mg/kg/injection, schedule: Q01DX009 (ip), vehicle: saline with Tween-80 98 % of control | dose: 25.0 mg/kg/injection, schedule: Q01DX009 (ip), vehicle: saline with Tween-80 102 % of control | [14] 109 % of control

CC1CC(C)(C)OB(OC(C)CC(C)(C)OB2OC(C)CC(C)(C)O2)O1 (stereo not given)
inactive: [6] 102 % of control | [2] 107 % of control | [3] 96 % of control | [4] 107 % of control

CC1(C)N=C(N)N=C(N)N1c1cc(Cl)cc(CCNC(=O)Nc2ccc(S(=O)(=O)F)cc2)c1
inactive: dose: 25.0 mg/kg/injection, schedule: Q01DX001 (ip), vehicle: saline with Tween-80 98 % of control | dose: 50.0 mg/kg/injection, schedule: Q01DX001 (ip), vehicle: saline with Tween-80 98 % of control | [15] 106 % of control

Cn1c(=O)cc(CCl)c2ccccc21
inactive: [16] 105 % of control

CCCCCCCCCCCCCCCCN(C(=S)c1ccccc1)c1ccccc1
inactive: [7] 89 % of control | [8] 104 % of control | [9] 90 % of control | [10] 94 % of control | dose: 400.0 mg/kg/injection, schedule: Q01DX009 (ip), vehicle: Klucel (hydroxypropylcellulose) (HPC) 87 % of control | [17] 96 % of control

C/C(=N/NC(N)=S)c1ccc[nH]1
inactive: dose: 100.0 mg/kg/injection, schedule: Q01DX001 (ip), vehicle: Klucel (hydroxypropylcellulose) (HPC) 108 % of control | dose: 200.0 mg/kg/injection, schedule: Q01DX001 (ip), vehicle: Klucel (hydroxypropylcellulose) (HPC) 93 % of control

Cc1ccc(Nc2n[nH]c(=S)s2)c(C)c1
inactive: dose: 100.0 mg/kg/injection, schedule: Q04DX002 (ip), vehicle: gum acacia 96 % of control | dose: 200.0 mg/kg/injection, schedule: Q04DX002 (ip), vehicle: gum acacia 96 % of control | dose: 400.0 mg/kg/injection, schedule: Q04DX002 (ip), vehicle: gum acacia 111 % of control

O=C(O)CCC1C2CC(C1C(=O)O)C1C3CCC(C3)C21 (stereo not given)
inactive: [8] 100 % of control | [10] 95 % of control | [17] 95 % of control

O=c1oc2ccccc2c(O)c1C(C/C(=N/O)c1ccccc1)c1ccccc1 (stereo not given)
inactive: [11] 96 % of control | [12] 91 % of control | [13] 88 % of control

CCCCCCCCCCP(=O)(CCCCCCCCCC)C(O)C(Cl)(Cl)Cl (stereo not given)
inactive: [15] 91 % of control | dose: 200.0 mg/kg/injection, schedule: Q01DX001 (ip), vehicle: saline with Tween-80 93 % of control | dose: 400.0 mg/kg/injection, schedule: Q01DX001 (ip), vehicle: saline with Tween-80 94 % of control

CC(C)CCC[C@@H](C)[C@H]1CC[C@H]2[C@@H]3C[C@@H](Br)[C@@]4(Br)C[C@@H](Cl)CC[C@]4(C)[C@H]3CC[C@]12C
inactive: dose: 50.0 mg/kg/injection, schedule: Q01DX001 (ip), vehicle: other 102 % of control | [16] 107 % of control | dose: 200.0 mg/kg/injection, schedule: Q01DX001 (ip), vehicle: other 96 % of control | dose: 400.0 mg/kg/injection, schedule: Q01DX001 (ip), vehicle: other 96 % of control

CC(C)(C)c1ccc(O)c(C(C)(C)C)c1
inactive: [14] 100 % of control | dose: 100.0 mg/kg/injection, schedule: Q01DX009 (ip), vehicle: saline with Tween-80 96 % of control | [11] 91 % of control | dose: 200.0 mg/kg/injection, schedule: Q01DX009 (ip), vehicle: saline with Tween-80 97 % of control | [12] 95 % of control
